According to patent publication EP4471049A1 (Zealand Pharma A/S, priority 2023, dated 2024):
*1 amine or outer side, *2 acyl side, *3 side chain or, on linkers, in order; H or OH if unused. Where a SMILES comes first, the peptide text is derived from it. Bridges are numbered along the chain shown (N, C = ends). [ ]: non-standard residue; d: D form. 2Nal = N[C@@H](Cc1ccc2ccccc2c1)C(=O)O; AEF = NCCOc1ccc(C[C@H](N)C(=O)O)cc1; X1 = O=C(Cc1ccc(CN[*:1])cc1)[*:2]; 3Pal = N[C@@H](Cc1cccnc1)C(=O)O; αMeL = CC(C)C[C@](C)(N)C(=O)O; Dab = NCC[C@H](N)C(=O)O; Sar = CNCC(=O)O

How the values were obtained:
[1] = Peptide stability in simulated gastric fluid (SGF); type: in vitro ADME; details: pig, simulated gastric fluid (SGF) with porcine pepsin, 37 °C, pH 1.2, porcine pepsin 3.2 g/L
Summary of the method: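 Peptide incubated at 37 °C with gentle shaking in SGF (NaCl, pH 1.2). Samples centrifuged, diluted and analysed by LC-HRMS; percent remaining at each timepoint from absolute peak areas relative to time zero, with 4 h as the reference point.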

[2] = Peptide stability in simulated intestinal fluid (SIF); type: in vitro ADME; details: for remaining at 4 h, 10 µM / remaining at 1 h, 10 µM: pig, simulated intestinal fluid (SIF) with porcine pancreatin; for remaining at 4 h, 10 µM: pH 6.8, read-out: SIF (% after 4 h); for remaining at 1 h, 10 µM / SIF (% remaining 4 h): 37 °C, pH 6.8, porcine pancreatin 10 g/L, 10 µM
Summary of the method: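 Peptides were incubated at 37 °C with gentle shaking in pH 6.8 potassium phosphate SIF containing porcine pancreatin (10 g/L). Supernatants were analysed by LC-HRMS. Percent remaining at each timepoint, including 4 h, was calculated relative to time zero from absolute peak areas.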

[3] = target: IL-23 mediated STAT3 signalling (Homo sapiens, UniProt Q5VWK5); experiment: Functional inhibition of IL-23 mediated STAT3 signalling (phospho-STAT3 Tyr705 MSD, DB cells); type: cell-based; details: Example 2 (Tables 2-1 to 2-4), read-out: IC50 (pSTAT3)
Experimental: The ability of compounds to inhibit IL-23 mediated signalling was determined in the human-derived DB cell line (CRL-2289) (hereafter referred to as DB cells), which endogenously expresses the human IL-23R and human IL-12R β1 subunits. Upon binding of IL-23, the IL-23R forms a heterodimer signalling complex together with IL-12R β1, which through the JAK2/STAT3 pathway promotes phosphorylation of STAT3 to form phospho-STAT3. In the assay, the functional antagonism of IL-23 mediated phospho-STAT3 formation in DB cells by the compound is quantified using reagents capable of measuring the phosphorylation state of Tyr705 of STAT3 in the form of a phospho-STAT3 (Tyr705) MSD (Meso Scale Discovery) kit.
[…]. For compounds tested in this assay, the response was normalized relative to control values to calculate the IC50 and maximal inhibitory response from a concentration response curve of the compound in presence of a fixed concentration of human IL-23.
The assay procedure was as follows. DB cells were maintained in growth medium consisting of RPMI-1640 [Invitrogen 61870-010] supplemented with 10% V/V Foetal Bovine Serum (FBS) [(heat inactivated), Invitrogen 10270-106], and 1% V/V Penicillin-Streptomycin (Pen-Strep) Solution [Invitrogen 15140]. On the day of assay, cells were resuspended in Assay buffer consisting of RPMI-1640 [Invitrogen 61870-010] supplemented with 0.1 % w/V BSA [Sigma-Aldrich A9430] to a density of 7.5x10^6 cells/mL. Compounds to be tested for inhibition of hIL-23 mediated signalling were serially diluted in Assay buffer to 3X the final concentration. A solution of hIL-23 corresponding to 3X the EC80 of hIL-23 (1.7 nM) was also prepared in Assay buffer. To initiate the assay, 20 µL of DB cell suspension (corresponding to 150.000 cells/well) was added to the wells of a 96-well V-bottom Polypropylene plate [Corning 3363] followed by addition of 3X 20 µL of the diluted test compounds to separate wells. Following preincubation of the DB cells with inhibitor for 15 min in a cell incubator (37 °C, 5% CO2), 20 µL of the prepared 3X the EC80 of hIL-23 solution was added to each well and incubated for 90 min in a cell incubator (37 °C, 5% CO2). For some wells buffer only or IL-23 only corresponding to the EC80 was added to obtain readouts needed for normalization. To terminate the assay, the plate was spun at 1000 G for 5 min to pellet cells, the supernatant removed using an 8-channel manual pipette, and then added 50 µL/well Complete Lysis Buffer from the MSD STAT3 kit (Cat# K150SVD, Mesoscale) to the cell pellet. To completely lyse cells to release phospho-STAT3 for detection, the plate was shaken for 10 min at room temperature (500 rpm) sealed with aluminium foil and placed at -80 °C for a minimum of 15 min. Detection of the phospho-STAT3 level in the cell lysate from the individual wells was determined using the MSD STAT3 kit (Cat# K150SVD, Mesoscale) and read on a Meso QuickPlex SQ 120 plate reader (Mesoscale).
For data analysis raw data counts from the Meso QuickPlex SQ 120 plate reader were normalized relative to the response by the EC80 of hIL-23 alone (no compound added) and the buffer level. Compound potency (IC50) and maximal inhibitory response (% inhibition) were estimated by computer-aided curve fitting using a 4-parameter logistic (4PL) non-linear model. […]. Typically compounds with a low IC50 are desired. Typically compounds capable of completely inhibiting the IL23-induced response are desired. […]. Table 3-2: hIL-23 (pSTAT3) antagonist IC50 and % inhibition data

[4] = Example 2 (Tables 2-1 to 2-4), intact peptide remaining after 4 h

Sequence of IL-23 mediated STAT3 signalling (Q5VWK5 24-629 limits assumed): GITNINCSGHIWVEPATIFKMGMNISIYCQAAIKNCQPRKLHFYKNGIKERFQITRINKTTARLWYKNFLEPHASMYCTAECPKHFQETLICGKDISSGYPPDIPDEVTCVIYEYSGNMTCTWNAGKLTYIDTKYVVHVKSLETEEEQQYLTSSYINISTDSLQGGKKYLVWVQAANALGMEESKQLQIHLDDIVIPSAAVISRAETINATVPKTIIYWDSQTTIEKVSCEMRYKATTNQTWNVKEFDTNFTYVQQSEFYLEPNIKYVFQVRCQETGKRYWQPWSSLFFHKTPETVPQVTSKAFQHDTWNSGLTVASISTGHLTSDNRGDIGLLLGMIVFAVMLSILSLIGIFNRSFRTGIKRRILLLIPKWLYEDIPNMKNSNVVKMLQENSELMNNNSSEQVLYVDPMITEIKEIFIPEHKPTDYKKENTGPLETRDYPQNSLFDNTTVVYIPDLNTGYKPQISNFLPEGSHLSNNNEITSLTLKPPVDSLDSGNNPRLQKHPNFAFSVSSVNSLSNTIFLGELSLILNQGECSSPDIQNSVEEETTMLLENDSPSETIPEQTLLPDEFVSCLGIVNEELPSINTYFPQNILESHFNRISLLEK

Row | remaining at 1 h, 10 µM [1] | remaining at 4 h, 10 µM [2, 4] | remaining at 1 h, 10 µM [2] | IC50 [3] | SIF (% remaining 4 h) [2] | remaining at 4 h, 10 µM [1] | SIF (% after 4 h) [2, 4] | Compound
1 | 99% | 109% | 115% | 1.7 nM | – | – | – | CC(C)C[C@]1(C)NC(=O)[C@H](Cc2ccc3ccccc3c2)NC(=O)[C@H](Cc2ccc(OCCN)cc2)NC(=O)[C@@H]2CCNC(=O)CC[C@H](NC(=O)[C@H](CO)NC(=O)Cc3ccc(cc3)CNC(=O)CC[C@@H](C(=O)N[C@@H](CCN)C(=O)N[C@@](C)(Cc3cccnc3)C(N)=O)NC1=O)C(=O)N[C@@H](Cc1c[nH]c3ccccc13)C(=O)N[C@@H](CCC(N)=O)C(=O)N2 [Compound 3, [4-Aminomethyl-phenylacetyl](1c)*SE(2c)WQ[Dab](2c)[Y(2-aminoethoxy)][2-Nal][2-Me-Leu]E(1c)[Dab][2-Me-3-(3-Pyridyl)-Ala]-[NH2]]
2 | 97% | 89% | – | 6.5 nM | – | – | – | CC(C)C[C@]1(C)NC(=O)[C@H](Cc2ccc3ccccc3c2)NC(=O)[C@H](Cc2ccc(OCCN)cc2)NC(=O)[C@@H]2CCNC(=O)CC[C@H](NC(=O)[C@H](CO)NC(=O)Cc3ccc(cc3)CNC(=O)CC[C@@H](C(=O)N[C@@H](CCN)C(=O)N(C)[C@@H](Cc3cccnc3)C(N)=O)NC1=O)C(=O)N[C@@H](Cc1c[nH]c3ccccc13)C(=O)N[C@@H](CCC(N)=O)C(=O)N2 [Compound 4, [4-Aminomethyl-phenylacetyl](1c)*SE(2c)WQ[Dab](2c)[Y(2-aminoethoxy)][2-Nal][2-Me-Leu]E(1c)[Dab][N-Me-3-(3-Pyridyl)-Ala]-[NH2]]
3 | 99% | 41% | – | 2.1 nM | 41% | – | – | CC(C)C[C@]1(C)NC(=O)[C@H](Cc2ccc3ccccc3c2)NC(=O)[C@H](Cc2ccc(OCCN)cc2)NC(=O)[C@@H]2CCNC(=O)CC[C@H](NC(=O)[C@H](CO)NC(=O)Cc3ccc(cc3)CNC(=O)CC[C@@H](C(=O)N[C@@H](CCN)C(=O)N[C@H](Cc3cccnc3)C(N)=O)NC1=O)C(=O)N[C@@H](Cc1c[nH]c3ccccc13)C(=O)N[C@@H](CCC(N)=O)C(=O)N2 [Compound 5, [4-Aminomethyl-phenylacetyl](1c)*SE(2c)WQ[Dab](2c)[Y(2-aminoethoxy)][2-Nal][2-Me-Leu]E(1c)[Dab][{d}3-(3-Pyridyl)-Ala]-[NH2]]
4 | – | 73% | – | 3.2 nM | 73% | – | – | CC(C)C[C@]1(C)NC(=O)[C@H](Cc2ccc3ccccc3c2)NC(=O)[C@H](Cc2ccc(OCCN)cc2)NC(=O)[C@@H]2CCNC(=O)CC[C@H](NC(=O)[C@H](CO)NC(=O)Cc3ccc(cc3)CNC(=O)CC[C@@H](C(=O)N[C@@H](CCN)C(=O)NCCCCc3cccnc3)NC1=O)C(=O)N[C@@H](Cc1c[nH]c3ccccc13)C(=O)N[C@@H](CCC(N)=O)C(=O)N2 [Compound 6, [4-Aminomethyl-phenylacetyl](1c)*SE(2c)WQ[Dab](2c)[Y(2-aminoethoxy)][2-Nal][2-Me-Leu]E(1c)[Dab]-[NH-(4-(pyridin-3-yl)butanyl)]]
5 | 77% | – | – | 0.13 nM | 130% | 82% | 130% | CC(C)C[C@]1(C)NC(=O)[C@H](Cc2ccc3ccccc3c2)NC(=O)[C@H](Cc2ccc(OCCN)cc2)NC(=O)[C@@H]2CCNC(=O)CC[C@H](NC(=O)[C@H](CO)NC(=O)Cc3ccc(cc3)CNC(=O)CC[C@@H](C(=O)N[C@@H](CCN)C(=O)NCCc3cccnc3)NC1=O)C(=O)N[C@@H](Cc1c[nH]c3ccccc13)C(=O)N[C@@H](CCC(N)=O)C(=O)N2 [Compound 7, [4-Aminomethyl-phenylacetyl](1c)*SE(2c)WQ[Dab](2c)[Y(2-aminoethoxy)][2-Nal][2-Me-Leu]E(1c)[Dab]-[NH-(2-(pyridin-3-yl)ethyl)]]
6 | – | 105% | – | 0.053 nM | – | – | – | CNC(=O)[C@H](Cc1cccnc1)NC(=O)[C@H](CCN)NC(=O)[C@@H]1CCC(=O)NCc2ccc(cc2)CC(=O)N[C@@H](CO)C(=O)N[C@H]2CCC(=O)NCC[C@H](NC(=O)[C@H](CCC(N)=O)NC(=O)[C@H](Cc3c[nH]c4ccccc34)NC2=O)C(=O)N[C@@H](Cc2ccc(OCCN)cc2)C(=O)N[C@@H](Cc2ccc3ccccc3c2)C(=O)N[C@@](C)(CC(C)C)C(=O)N1 [Compound 8, [4-Aminomethyl-phenylacetyl](1c)*SE(2c)WQ[Dab](2c)[Y(2-aminoethoxy)][2-Nal][2-Me-Leu]E(1c)[Dab][3-(3-Pyridyl)-Ala]-[NHMe]]
7 | 96% | 105% | – | 0.025 nM | – | – | – | CC(C)C[C@]1(C)NC(=O)[C@H](Cc2ccc3ccccc3c2)NC(=O)[C@H](Cc2ccc(OCCN)cc2)NC(=O)[C@@H]2CCNC(=O)CC[C@H](NC(=O)[C@H](CO)NC(=O)Cc3ccc(cc3)CNC(=O)CC[C@@H](C(=O)N[C@@H](CCN)C(=O)N[C@@H](Cc3cccnc3)C(=O)N(C)CC(N)=O)NC1=O)C(=O)N[C@@H](Cc1c[nH]c3ccccc13)C(=O)N[C@@H](CCC(N)=O)C(=O)N2 [Compound 9, [4-Aminomethyl-phenylacetyl](1c)*SE(2c)WQ[Dab](2c)[Y(2-aminoethoxy)][2-Nal][2-Me-Leu]E(1c)[Dab][3-(3-Pyridyl)-Ala][Sar]-[NH2]] ([X1]SEWQ[Dab][AEF][2Nal][αMeL]E[Dab][3Pal][Sar]-NH2; lactam 3-6, N-10)
8 | 97% | 11% | 34% | 0.038 nM | 11% | 86% | – | CC(C)C[C@]1(C)NC(=O)[C@H](Cc2ccc3ccccc3c2)NC(=O)[C@H](Cc2ccc(OCCN)cc2)NC(=O)[C@@H]2CCNC(=O)CC[C@H](NC(=O)[C@H](CO)NC(=O)Cc3ccc(cc3)CNC(=O)CC[C@@H](C(=O)N[C@@H](CCN)C(=O)N[C@@H](Cc3cccnc3)C(=O)N[C@H](Cc3c[nH]cn3)C(N)=O)NC1=O)C(=O)N[C@@H](Cc1c[nH]c3ccccc13)C(=O)N[C@@H](CCC(N)=O)C(=O)N2 [Compound 10, [4-Aminomethyl-phenylacetyl](1c)*SE(2c)WQ[Dab](2c)[Y(2-aminoethoxy)][2-Nal][2-Me-Leu]E(1c)[Dab][3-(3-Pyridyl)-Ala][{d}H]-[NH2]] ([X1]SEWQ[Dab][AEF][2Nal][αMeL]E[Dab][3Pal][dH]-NH2; lactam 3-6, N-10)
